In ChEMBL document CHEMBL2429821, “A Casein kinase 1/Checkpoint kinase 1 pyrazolo-pyridine protein kinase inhibitor as novel activator of the p53 pathway” (Bioorg Med Chem Lett, 2013):

Assays:
[1] = target: Tyrosine-protein kinase SYK (Homo sapiens) (UniProt P43405); experiment: Inhibition of human SYK assessed as residual activity at 10 uM relative to control
[2] = target: T1, Inhibitor of nuclear factor kappa-B kinase subunit epsilon (Homo sapiens) (UniProt Q14164); experiment: Inhibition of human IKKepsilon assessed as residual activity at 1 uM relative to control
T1 sequence (whole entry): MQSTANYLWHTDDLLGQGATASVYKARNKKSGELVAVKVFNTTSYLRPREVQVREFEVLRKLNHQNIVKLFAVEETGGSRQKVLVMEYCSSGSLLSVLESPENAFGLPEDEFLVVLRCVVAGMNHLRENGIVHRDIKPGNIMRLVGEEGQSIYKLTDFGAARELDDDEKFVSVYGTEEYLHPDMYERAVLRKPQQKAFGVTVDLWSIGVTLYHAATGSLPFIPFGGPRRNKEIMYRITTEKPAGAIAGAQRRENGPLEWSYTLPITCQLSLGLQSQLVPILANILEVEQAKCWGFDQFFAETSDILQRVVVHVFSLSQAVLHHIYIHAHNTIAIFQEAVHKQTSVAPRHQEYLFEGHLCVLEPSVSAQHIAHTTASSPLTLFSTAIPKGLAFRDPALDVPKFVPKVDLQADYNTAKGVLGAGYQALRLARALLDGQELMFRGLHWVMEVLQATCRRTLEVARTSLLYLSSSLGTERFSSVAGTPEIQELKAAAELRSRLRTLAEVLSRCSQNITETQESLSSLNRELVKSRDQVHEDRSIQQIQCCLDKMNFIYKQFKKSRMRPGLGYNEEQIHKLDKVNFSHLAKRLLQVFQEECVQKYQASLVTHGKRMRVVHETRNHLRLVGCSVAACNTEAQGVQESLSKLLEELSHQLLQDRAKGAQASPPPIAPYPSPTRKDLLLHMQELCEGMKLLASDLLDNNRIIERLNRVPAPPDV

[3] = target: T2, MAP kinase-activated protein kinase 5 (Homo sapiens) (UniProt Q8IW41); experiment: Inhibition of human PRAK assessed as residual activity at 10 uM relative to control
T2 sequence (whole entry): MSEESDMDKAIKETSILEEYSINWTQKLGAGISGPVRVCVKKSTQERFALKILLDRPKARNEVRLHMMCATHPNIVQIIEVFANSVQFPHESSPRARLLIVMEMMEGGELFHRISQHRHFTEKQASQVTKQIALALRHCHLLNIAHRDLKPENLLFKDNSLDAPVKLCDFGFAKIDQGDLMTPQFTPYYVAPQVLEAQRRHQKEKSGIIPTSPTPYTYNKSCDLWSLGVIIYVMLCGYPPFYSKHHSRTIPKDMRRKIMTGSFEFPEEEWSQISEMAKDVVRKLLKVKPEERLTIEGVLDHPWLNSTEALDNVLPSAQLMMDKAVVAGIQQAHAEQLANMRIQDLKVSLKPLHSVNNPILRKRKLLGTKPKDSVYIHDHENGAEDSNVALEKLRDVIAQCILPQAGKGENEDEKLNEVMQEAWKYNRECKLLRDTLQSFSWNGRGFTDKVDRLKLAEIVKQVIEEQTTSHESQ

[4] = target: MAP kinase-interacting serine/threonine-protein kinase 1 (Homo sapiens) (UniProt Q9BUB5); experiment: Inhibition of human MNK1 assessed as residual activity at 1 uM relative to control
MAP kinase-interacting serine/threonine-protein kinase 1 (Homo sapiens), sequence (Q9BUB5 whole entry, looked up): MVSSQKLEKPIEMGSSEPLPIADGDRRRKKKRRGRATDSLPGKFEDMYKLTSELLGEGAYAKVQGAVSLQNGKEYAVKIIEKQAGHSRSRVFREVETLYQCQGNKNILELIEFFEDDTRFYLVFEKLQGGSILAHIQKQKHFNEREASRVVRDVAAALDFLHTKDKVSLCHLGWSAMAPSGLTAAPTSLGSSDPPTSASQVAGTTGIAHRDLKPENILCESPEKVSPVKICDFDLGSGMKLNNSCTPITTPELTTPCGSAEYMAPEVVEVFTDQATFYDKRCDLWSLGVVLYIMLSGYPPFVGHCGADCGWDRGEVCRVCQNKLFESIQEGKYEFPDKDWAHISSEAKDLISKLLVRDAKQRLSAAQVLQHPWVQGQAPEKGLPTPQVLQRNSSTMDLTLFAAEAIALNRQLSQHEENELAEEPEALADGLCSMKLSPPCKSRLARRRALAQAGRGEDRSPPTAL

[5] = target: Aurora kinase B (Homo sapiens) (UniProt Q96GD4); experiment: Inhibition of human Aurora-B assessed as residual activity at 1 uM relative to control
Aurora kinase B (Homo sapiens), sequence (Q96GD4 whole entry): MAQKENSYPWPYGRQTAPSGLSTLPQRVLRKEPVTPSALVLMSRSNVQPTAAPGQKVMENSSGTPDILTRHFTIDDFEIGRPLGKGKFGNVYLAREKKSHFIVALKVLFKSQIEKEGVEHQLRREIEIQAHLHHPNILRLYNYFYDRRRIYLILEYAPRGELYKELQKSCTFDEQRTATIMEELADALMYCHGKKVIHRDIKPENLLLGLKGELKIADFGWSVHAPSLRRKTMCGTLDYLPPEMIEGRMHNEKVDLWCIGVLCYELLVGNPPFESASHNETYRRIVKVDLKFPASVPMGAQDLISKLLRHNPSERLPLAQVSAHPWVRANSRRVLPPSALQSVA

[6] = target: T3, Serine/threonine-protein kinase TBK1 (Homo sapiens) (UniProt Q9UHD2); experiment: Inhibition of human TBK1 assessed as residual activity at 10 uM relative to control
T3 sequence (whole entry): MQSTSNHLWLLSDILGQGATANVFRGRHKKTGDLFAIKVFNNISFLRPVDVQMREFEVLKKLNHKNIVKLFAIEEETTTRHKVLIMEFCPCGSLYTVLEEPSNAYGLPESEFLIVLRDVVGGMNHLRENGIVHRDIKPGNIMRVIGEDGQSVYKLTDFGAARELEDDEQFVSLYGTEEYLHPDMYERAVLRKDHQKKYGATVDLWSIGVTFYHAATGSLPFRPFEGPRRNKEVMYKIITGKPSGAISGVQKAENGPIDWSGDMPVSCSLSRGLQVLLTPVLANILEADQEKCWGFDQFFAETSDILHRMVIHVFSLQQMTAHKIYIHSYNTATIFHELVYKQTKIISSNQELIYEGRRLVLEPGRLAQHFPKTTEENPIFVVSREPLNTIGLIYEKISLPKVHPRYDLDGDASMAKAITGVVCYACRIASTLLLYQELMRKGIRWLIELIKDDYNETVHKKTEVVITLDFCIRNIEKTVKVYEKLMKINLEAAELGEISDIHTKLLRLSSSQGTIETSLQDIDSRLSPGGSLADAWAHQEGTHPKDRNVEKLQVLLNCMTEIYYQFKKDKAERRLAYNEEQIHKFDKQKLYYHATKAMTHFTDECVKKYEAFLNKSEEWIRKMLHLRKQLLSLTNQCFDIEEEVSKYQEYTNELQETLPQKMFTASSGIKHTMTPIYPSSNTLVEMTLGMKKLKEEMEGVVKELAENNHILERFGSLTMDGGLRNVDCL

[7] = target: Ribosomal protein S6 kinase alpha-5 (Homo sapiens) (UniProt O75582); experiment: Inhibition of human MSK1 assessed as residual activity at 1 uM relative to control
Ribosomal protein S6 kinase alpha-5 (Homo sapiens), sequence (O75582 whole entry, looked up): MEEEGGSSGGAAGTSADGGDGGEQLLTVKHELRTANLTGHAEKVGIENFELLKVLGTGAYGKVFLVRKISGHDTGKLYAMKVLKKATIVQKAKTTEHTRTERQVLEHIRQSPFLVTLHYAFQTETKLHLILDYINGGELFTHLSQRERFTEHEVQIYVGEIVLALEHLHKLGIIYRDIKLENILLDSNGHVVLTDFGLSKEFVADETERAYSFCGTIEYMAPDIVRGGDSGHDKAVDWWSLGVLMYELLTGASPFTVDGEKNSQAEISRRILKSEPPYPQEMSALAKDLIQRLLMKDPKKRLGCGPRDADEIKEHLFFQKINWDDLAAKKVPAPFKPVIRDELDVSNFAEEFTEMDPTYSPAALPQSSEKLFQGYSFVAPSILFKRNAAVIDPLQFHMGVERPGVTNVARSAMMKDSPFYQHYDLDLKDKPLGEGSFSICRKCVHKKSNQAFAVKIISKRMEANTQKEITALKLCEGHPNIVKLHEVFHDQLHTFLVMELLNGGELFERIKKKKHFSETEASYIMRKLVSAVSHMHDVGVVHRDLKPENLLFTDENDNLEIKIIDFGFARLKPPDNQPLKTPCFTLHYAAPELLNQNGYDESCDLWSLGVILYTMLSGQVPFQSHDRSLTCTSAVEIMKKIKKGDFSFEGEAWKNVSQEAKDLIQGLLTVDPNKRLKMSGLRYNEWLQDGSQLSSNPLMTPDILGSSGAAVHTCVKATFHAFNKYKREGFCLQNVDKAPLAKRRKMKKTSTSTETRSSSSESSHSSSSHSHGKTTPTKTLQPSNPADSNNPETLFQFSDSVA

[8] = target: Serine/threonine-protein kinase pim-1 (Homo sapiens) (UniProt P11309); experiment: Inhibition of human PIM1 assessed as residual activity at 1 uM relative to control
Serine/threonine-protein kinase pim-1 (Homo sapiens), sequence (P11309 whole entry, looked up): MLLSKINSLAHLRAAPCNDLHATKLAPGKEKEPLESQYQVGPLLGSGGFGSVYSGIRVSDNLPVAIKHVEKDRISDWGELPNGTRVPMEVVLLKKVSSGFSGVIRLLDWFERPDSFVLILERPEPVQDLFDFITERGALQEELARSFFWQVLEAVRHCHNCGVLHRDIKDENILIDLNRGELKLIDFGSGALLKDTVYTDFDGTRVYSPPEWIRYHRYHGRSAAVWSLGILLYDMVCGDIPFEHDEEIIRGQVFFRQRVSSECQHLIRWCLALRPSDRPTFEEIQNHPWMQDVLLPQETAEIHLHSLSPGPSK

[9] = target: Fibroblast growth factor receptor 1 (Homo sapiens, UniProt P11362); experiment: Inhibition of human FGFR1 assessed as residual activity at 1 uM relative to control
Fibroblast growth factor receptor 1, sequence (P11362 22-822 limits assumed): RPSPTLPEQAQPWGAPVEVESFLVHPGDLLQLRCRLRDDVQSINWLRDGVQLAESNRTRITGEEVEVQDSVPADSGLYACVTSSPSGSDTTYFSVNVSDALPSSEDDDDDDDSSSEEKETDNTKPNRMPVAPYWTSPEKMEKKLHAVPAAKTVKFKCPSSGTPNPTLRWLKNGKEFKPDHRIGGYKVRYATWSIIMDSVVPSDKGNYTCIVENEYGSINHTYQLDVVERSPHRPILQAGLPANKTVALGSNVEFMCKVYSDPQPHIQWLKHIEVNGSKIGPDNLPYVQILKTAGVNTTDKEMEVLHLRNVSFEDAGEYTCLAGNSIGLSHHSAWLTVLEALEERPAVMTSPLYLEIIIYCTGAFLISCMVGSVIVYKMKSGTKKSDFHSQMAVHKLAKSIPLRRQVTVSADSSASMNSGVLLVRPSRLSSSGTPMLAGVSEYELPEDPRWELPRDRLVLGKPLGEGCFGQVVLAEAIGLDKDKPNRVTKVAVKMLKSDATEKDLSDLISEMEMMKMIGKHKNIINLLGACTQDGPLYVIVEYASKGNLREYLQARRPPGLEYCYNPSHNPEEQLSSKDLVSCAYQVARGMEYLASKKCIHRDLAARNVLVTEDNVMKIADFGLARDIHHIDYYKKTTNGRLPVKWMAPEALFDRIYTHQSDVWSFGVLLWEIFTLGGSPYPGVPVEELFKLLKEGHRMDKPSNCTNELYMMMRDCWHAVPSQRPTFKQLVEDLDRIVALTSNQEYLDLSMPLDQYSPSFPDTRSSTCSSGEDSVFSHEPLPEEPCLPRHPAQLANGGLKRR

[10] = target: Serine/threonine-protein kinase N2 (Homo sapiens) (UniProt Q16513); experiment: Inhibition of human PRK2 assessed as residual activity at 10 uM relative to control
Serine/threonine-protein kinase N2 (Homo sapiens), sequence (Q16513 whole entry, looked up): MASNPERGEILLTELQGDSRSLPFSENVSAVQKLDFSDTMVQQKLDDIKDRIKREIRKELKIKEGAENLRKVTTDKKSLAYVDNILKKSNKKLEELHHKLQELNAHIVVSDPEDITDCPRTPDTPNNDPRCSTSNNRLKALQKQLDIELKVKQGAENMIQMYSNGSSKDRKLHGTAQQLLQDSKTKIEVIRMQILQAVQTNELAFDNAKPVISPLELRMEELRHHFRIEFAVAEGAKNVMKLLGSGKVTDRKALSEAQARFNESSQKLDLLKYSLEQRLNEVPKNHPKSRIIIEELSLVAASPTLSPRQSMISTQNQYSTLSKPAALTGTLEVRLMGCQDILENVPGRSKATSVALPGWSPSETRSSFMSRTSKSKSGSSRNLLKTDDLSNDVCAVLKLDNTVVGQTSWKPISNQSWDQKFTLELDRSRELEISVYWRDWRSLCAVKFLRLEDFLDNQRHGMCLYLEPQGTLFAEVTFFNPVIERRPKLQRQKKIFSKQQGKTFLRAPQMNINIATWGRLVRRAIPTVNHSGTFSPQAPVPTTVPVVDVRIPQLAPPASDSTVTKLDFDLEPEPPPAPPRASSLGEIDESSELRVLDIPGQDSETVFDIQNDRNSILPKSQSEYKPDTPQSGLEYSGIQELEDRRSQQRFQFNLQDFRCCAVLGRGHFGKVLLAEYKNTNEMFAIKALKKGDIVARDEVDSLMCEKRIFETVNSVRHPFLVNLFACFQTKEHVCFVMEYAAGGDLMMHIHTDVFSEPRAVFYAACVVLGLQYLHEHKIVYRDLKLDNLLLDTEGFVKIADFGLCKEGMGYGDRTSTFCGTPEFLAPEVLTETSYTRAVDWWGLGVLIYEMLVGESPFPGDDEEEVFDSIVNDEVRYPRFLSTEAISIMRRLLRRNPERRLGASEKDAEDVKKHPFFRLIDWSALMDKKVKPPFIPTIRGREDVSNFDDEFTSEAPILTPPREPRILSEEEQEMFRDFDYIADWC

[11] = target: SRSF protein kinase 1 (Homo sapiens) (UniProt Q96SB4); experiment: Inhibition of human SRPK1 assessed as residual activity at 10 uM relative to control
SRSF protein kinase 1 (Homo sapiens), sequence (Q96SB4 whole entry): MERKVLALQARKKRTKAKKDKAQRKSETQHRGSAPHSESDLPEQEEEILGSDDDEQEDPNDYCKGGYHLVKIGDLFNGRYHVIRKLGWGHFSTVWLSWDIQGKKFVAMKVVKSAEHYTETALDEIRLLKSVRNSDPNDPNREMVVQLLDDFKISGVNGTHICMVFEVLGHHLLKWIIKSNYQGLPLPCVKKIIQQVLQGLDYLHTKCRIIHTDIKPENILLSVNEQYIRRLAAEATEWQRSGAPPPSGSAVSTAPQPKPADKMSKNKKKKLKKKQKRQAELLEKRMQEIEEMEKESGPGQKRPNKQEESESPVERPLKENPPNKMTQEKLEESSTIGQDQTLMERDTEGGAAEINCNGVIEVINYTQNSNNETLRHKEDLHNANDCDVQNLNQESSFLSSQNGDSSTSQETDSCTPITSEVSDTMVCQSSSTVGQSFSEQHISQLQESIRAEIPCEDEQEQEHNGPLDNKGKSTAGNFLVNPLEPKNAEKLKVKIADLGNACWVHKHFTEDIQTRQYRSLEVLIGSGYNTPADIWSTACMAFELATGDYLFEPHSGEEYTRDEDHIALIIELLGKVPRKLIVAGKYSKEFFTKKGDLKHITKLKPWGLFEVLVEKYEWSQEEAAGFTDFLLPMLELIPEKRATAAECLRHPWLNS

| SMILES | Activity [1] | Activity [2] | Activity [3] | Activity [4] | Activity [5] | Activity [6] | Activity [7] | Activity [8] | Activity [9] | Activity [10] | Activity [11] |
| --- | --- | --- | --- | --- | --- | --- | --- | --- | --- | --- | --- |
| CCCC(=O)Nc1n[nH]c2ncc(-c3cccnc3)cc12 | 104% | 113% | 88% | 79% | 102% | 70% | 70% | 89% | 92% | 76% | 91% |
| CC(=O)Nc1nccc(-c2c(-c3ccccc3)noc2C)n1 | 98.7% | 85.1% | 83.7% | 101% | 93.5% | 105% | 82.7% | 105% | 99.8% | 96.5% | 91.3% |
| CC(=O)Nc1cccc(-c2cnc3[nH]nc(C)c3c2)c1 | 55.9% | 93.8% | 89.4% | 70% | 77.2% | 48.2% | 95.3% | 73.1% | 107% | 42.2% | 89% |
